# Read-outs that look alike come from different tables or passages of the source.
# Target: T1, rat MCH 1 receptor (rMCH1R) (Rattus norvegicus, UniProt P97639)
# T1 construct: expressed in transfected cells; host or cells: HEK 293 (membranes)
# Assay: 125I-MCH ligand binding assay, rMCH
# Conditions: HEK 293 membranes, 0.2 nM 125I native-MCH, read-out: IC50 in the rMCH binding assay
# Description: Human embryonic kidney cells (293 total) expressing either human, rat, or mouse MCH receptor were harvested from 150 mm culture dishes using PBS. Spinning at 1500 rpm for 2 minutes initially pelleted cells. The resulting pellet was then homogenized in 15 mL ice cold sucrose buffer (25 mM HEPES, 0.3 M sucrose, pH 7.4) with a motorized, glass fitted, Teflon® homogenizer. The homogenate was centrifuged at 48,000×g at 4° C. for 10 minutes, resuspended in 15 mL assay buffer (25 mM HEPES, 10 mM mgCl2, 0.2% BSA, 0.1 mg/mL STI, 0.1 mg/mL Pefabloc®, 1 μM Phosphoramidon, pH 7.4) with a Tissue-Tearor® (Biospec Products) and centrifuged again at 48,000×g for 10 minutes. The pellet was homogenized for a third time in 15 mL assay buffer using the Tissue-Tearor® and again centrifuged at 48,000×g for 10 minutes. The resulting pellet was resuspended in assay buffer at a wet weight concentration of 10-20 mg/mL.
# Binding assays were determined as described below using mouse, rat or human MCH 1 receptors (mMCH1R, rMCH1R, and hMCH1R, respectively) expressed in HEK 293; IC50 values were calculated.
# Binding assays were performed in 96-well U-bottom plates. Membranes (100 μg tissue) were incubated at 30° C. for 90 minutes in assay buffer with various peptides in the presence of 0.2 nM ^125I native-MCH (Perkin-Elmer Life Sciences, Boston, Mass.) in 100 μL total volume. Non-specific binding was assessed in the presence of 1 μM cold native-MCH. The reaction was terminated by rapid filtration through Unfilter-96 GF/C glass fiber filter plates (FilterMate® 196 Harvester, Packard Instrument Co., Meriden, Conn.) pre-soaked in PBS/0.5% BSA, followed by three washes with 300 μL ice-cold water. Bound radioactivity was determined using a TopCount® microplate scintillation and luminescence counter (Packard Instrument Co., Meriden, Conn.). Nonlinear regression analyses of drug concentration curves were performed using GraphPad Prism® (GraphPad Software, Inc., San Diego, Calif.).
# T1 sequence (P97639 whole entry): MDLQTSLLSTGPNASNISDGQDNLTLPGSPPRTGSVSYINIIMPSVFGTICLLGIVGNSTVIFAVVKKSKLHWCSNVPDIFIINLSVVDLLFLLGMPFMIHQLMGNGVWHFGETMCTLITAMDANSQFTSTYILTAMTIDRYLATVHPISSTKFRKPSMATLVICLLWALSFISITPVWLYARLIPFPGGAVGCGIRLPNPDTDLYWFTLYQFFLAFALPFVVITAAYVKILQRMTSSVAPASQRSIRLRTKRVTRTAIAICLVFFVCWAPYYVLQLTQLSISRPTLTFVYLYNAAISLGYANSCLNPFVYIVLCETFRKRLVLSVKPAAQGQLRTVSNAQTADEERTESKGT
IC50 (100 μM or less list) [µM],IC50 (100 nM or less list) [µM],Compound
≤ 100,,"CC(C)(C)OC(=O)Cn1nnnc1[C@H](c1ccccc1)N1CCN(C/C=C/c2ccccc2)CC1 (racemic) [Compound 24, (5-{phenyl-[4-(3-phenylallyl)piperazin-1-yl]methyl}tetrazol-1-yl)acetic acid tert-butyl ester]"
≤ 100,,"CCN([C@@H]1CCN(Cc2ccccc2)C1)[C@@H](c1cccc(C(F)(F)F)c1)c1nnnn1-c1c(C)cccc1C (racemic) [Compound 162, (1-benzylpyrrolidin-3-yl)-[[1-(2,6-dimethylphenyl)-1H-tetrazol-5-yl]-(3-trifluoromethylphenyl)methyl]ethylamine]"
≤ 100,,"Cc1ccc([C@@H](c2nnnn2-c2c(C)cccc2C)N2CCN(C/C=C/c3ccccc3)CC2)cc1C (racemic) [Compound 123, 1-{(3,4-dimethylphenyl)-[1-(2,6-dimethylphenyl)-1H-tetrazol-5-yl]methyl}-4-(3-phenylallyl)piperazine]"
≤ 100,,"Cc1cccc(C)c1-n1nnnc1C(c1cccc(C(F)(F)F)c1)N1CCN(CCCc2ccccc2)CC1 (racemic) [Compound 154, 1-[[1-(2,6-dimethylphenyl)-1H-tetrazol-5-yl]-(3-trifluoromethylphenyl)methyl]-4-(3-phenylpropyl)piperazine]"
≤ 100,,"Cc1cccc(C)c1-n1nnnc1[C@H](c1cccc(C(F)(F)F)c1)N1CCN(Cc2ccc3c(c2)OCO3)CC1 (racemic) [Compound 156, 1-benzo[1,3]dioxol-5-ylmethyl-4-[[1-(2,6-dimethylphenyl)-1H-tetrazol-5-yl]-(3-trifluoromethylphenyl)methyl]piperazine]"
≤ 100,≤ 0.1,"Cc1cccc(C)c1-n1nnnc1[C@H](c1cccc(Br)c1)N1CCN(C/C=C/c2ccccc2)CC1 (racemic) [Compound 139, 1-{(3-bromophenyl)-[1-(2,6-dimethylphenyl)-1H-tetrazol-5-yl]methyl}-4-(3-phenylallyl)piperazine]"
≤ 100,,"C(=C\c1ccccc1)/CN1CCN([C@@H](c2ccccc2)c2nnnn2CCC(c2ccccc2)c2ccccc2)CC1 (racemic) [Compound 27, 1-{[1-(3,3-diphenylpropyl)-1H-tetrazol-5-yl]phenylmethyl}-4-(3-phenylallyl)piperazine]"
≤ 100,≤ 0.1,"Cc1cccc(C)c1-n1nnnc1[C@H](c1cccc([N+](=O)[O-])c1)N1CCN(C/C=C/c2ccccc2)CC1 (racemic) [Compound 138, 1-[[1-(2,6-dimethylphenyl)-1H-tetrazol-5-yl]-(3-nitrophenyl)methyl]-4-(3-phenylallyl)piperazine]"
≤ 100,,"C(=C\c1ccccc1)/CN1CCN([C@@H](c2ccccc2)c2nnnn2C2CCN(Cc3ccccc3)CC2)CC1 (racemic) [Compound 28, 1-{[1-(1-benzylpiperidin-4-yl)-1H-tetrazol-5-yl]phenylmethyl}-4-(3-phenylallyl)piperazine]"
≤ 100,≤ 0.1,"Cc1cccc(C)c1-n1nnnc1[C@H](c1cccc(Cl)c1)N1CCN(C/C=C/c2ccccc2)CC1 (racemic) [Compound 140, 1-{(3-chlorophenyl)-[1-(2,6-dimethylphenyl)-1H-tetrazol-5-yl]methyl}-4-(3-phenylallyl)piperazine]"
≤ 100,,"COc1ccc([C@@H](c2nnnn2-c2c(C)cccc2C)N2CCN(C/C=C/c3ccccc3)CC2)cc1OC (racemic) [Compound 128, 1-{(3,4-dimethoxyphenyl)-[1-(2,6-dimethylphenyl)-1H-tetrazol-5-yl]methyl}-4-(3-phenylallyl)piperazine]"
≤ 100,≤ 0.1,"COc1cc(/C=C/CN2CCN([C@@H](c3cccc(C(F)(F)F)c3)c3nnnn3-c3c(C)cccc3C)CC2)ccc1O (racemic) [Compound 163, 4-(3-{4-[[1-(2,6-dimethylphenyl)-1H-tetrazol-5-yl]-(3-trifluoromethylphenyl)methyl]piperazin-1-yl}propenyl)-2-methoxyphenol]"
